In ChEMBL document CHEMBL1149677, “Synthesis of fluorescent and photoaffinity-labeled derivatives of bisphenol A and their inhibitory activity toward hypoxic expression of erythropoietin” (Bioorg Med Chem Lett, 2007):
Activity calls are given as the source filed them. No cut-off for these calls is given here.

Legend:
Format in all cases: functional, cell-based
Hep 3B2 [1] = experiment: Inhibition of erythropoietin expression in human Hep3B cells
Hep 3B2 [2] = experiment: Inhibition of erythropoietin expression in human Hep3B cells at 200 uM
Hep 3B2 [3] = experiment: Inhibition of erythropoietin expression in human Hep3B cells at 300 uM

Q: With `COCOc1ccc(C(C)(C)c2ccc(OCCCCOc3ccc(C4(C(F)(F)F)N=N4)cc3)cc2)cc1` as the compound, how does the Activity (Hep 3B2 [1]) read?
A: The Activity was “inactive”.

Q: For `CC(C)(c1ccc(OCCCCNc2ccc([N+](=O)[O-])c3nonc23)cc1)c1ccc(OCCCCOc2ccc(C3(C(F)(F)F)N=N3)cc2)cc1`, which Activity (Hep 3B2 [2]) is on record?
A: Its Activity is “Active”.

Q: How did the Activity (Hep 3B2 [3]) turn out when `CC(C)(c1ccc(OCCNc2ccc([N+](=O)[O-])c3nonc23)cc1)c1ccc(OCCOc2ccc(C3(C(F)(F)F)N=N3)cc2)cc1` was run?
A: The Activity was “Active”.

Q: With `COCOc1ccc(C(C)(C)c2ccc(OCCCCNc3ccc([N+](=O)[O-])c4nonc34)cc2)cc1` as the compound, how does the Activity (Hep 3B2 [1]) read?
A: Its Activity is “Active”.

Q: For `CC(C)(c1ccc(O)cc1)c1ccc(OCCCCNc2ccc([N+](=O)[O-])c3nonc23)cc1`, which Activity (Hep 3B2 [1]) is on record?
A: Its Activity is “Active”.
